# Source: patent US20240407365A1, “Method for Treating Technical Products” (THOR GMBH, priority 2021, published 2024)
# Test: amount of CMIT remaining in water-based dispersion paint after storage, HPLC
# Format: physicochemical
# Details: paint pH 8.3
# Procedure: The amounts of 5-chloro-2-methyl-4-isothiazolinone and zinc oxide specified in Table 1 were added to and homogeneously incorporated in aliquots of a commercially available, preservative-free, water-based matt interior dispersion paint (pH: 8.3; binder: ethylene vinyl acetate; pigment volume concentration (PVC): 77%). After 30 to 45 minutes, the sodium pyrithione was then added. The controls used were samples containing chloro-2-methyl-4-isothiazolinone and sodium pyrithione without zinc oxide and samples containing chloro-2-methyl-4-isothiazolinone only. The samples were stored at 21° C. and, after the time intervals specified in Table 1 (4 hours, 24 hours, 72 hours, 168 hours and 336 hours), the amount of chloro-2-methyl-4-isothiazolinone remaining in the paint was determined with the aid of HPLC analyses.
# [1] = NaPy 0 ppm, CMIT 25 ppm, ZnO 0 ppm
# [2] = NaPy 0 ppm, CMIT 50 ppm, ZnO 0 ppm
# [3] = NaPy 0 ppm, CMIT 100 ppm, ZnO 0 ppm
# [4] = NaPy 130 ppm, CMIT 25 ppm, ZnO 0 ppm
# [5] = NaPy 130 ppm, CMIT 25 ppm, ZnO 75 ppm
# [6] = NaPy 130 ppm, CMIT 25 ppm, ZnO 150 ppm
# [7] = NaPy 130 ppm, CMIT 25 ppm, ZnO 225 ppm
# [8] = NaPy 130 ppm, CMIT 25 ppm, ZnO 300 ppm
# [9] = NaPy 130 ppm, CMIT 25 ppm, ZnO 375 ppm
# [10] = NaPy 130 ppm, CMIT 25 ppm, ZnO 450 ppm
# [11] = NaPy 130 ppm, CMIT 25 ppm, ZnO 525 ppm
# [12] = NaPy 130 ppm, CMIT 50 ppm, ZnO 0 ppm
# [13] = NaPy 130 ppm, CMIT 50 ppm, ZnO 75 ppm
# [14] = NaPy 130 ppm, CMIT 50 ppm, ZnO 150 ppm
# [15] = NaPy 130 ppm, CMIT 50 ppm, ZnO 225 ppm
# [16] = NaPy 130 ppm, CMIT 50 ppm, ZnO 300 ppm
# [17] = NaPy 130 ppm, CMIT 50 ppm, ZnO 375 ppm
# [18] = NaPy 130 ppm, CMIT 50 ppm, ZnO 450 ppm
# [19] = NaPy 130 ppm, CMIT 50 ppm, ZnO 525 ppm
# [20] = NaPy 130 ppm, CMIT 100 ppm, ZnO 0 ppm
# [21] = NaPy 130 ppm, CMIT 100 ppm, ZnO 75 ppm
# [22] = NaPy 130 ppm, CMIT 100 ppm, ZnO 150 ppm
# [23] = NaPy 130 ppm, CMIT 100 ppm, ZnO 225 ppm
# [24] = NaPy 130 ppm, CMIT 100 ppm, ZnO 300 ppm
# [25] = NaPy 130 ppm, CMIT 100 ppm, ZnO 375 ppm
# [26] = NaPy 130 ppm, CMIT 100 ppm, ZnO 450 ppm
# [27] = NaPy 130 ppm, CMIT 100 ppm, ZnO 525 ppm
smiles,measurement,setting,value
"Cn1sc(Cl)cc1=O [CIMT, 5-chloro-2-methyl-4-isothiazolinone]",CIMT [ppm] after storage at 21° C. 4 [h],[1],25 ppm
same,CIMT [ppm] after storage at 21° C. 24 h,[1],25 ppm
same,CIMT [ppm] after storage at 21° C. 72 h,[1],24 ppm
same,CIMT [ppm] after storage at 21° C. 168 h,[1],24 ppm
same,CIMT [ppm] after storage at 21° C. 336 h,[1],22 ppm
same,CIMT [ppm] after storage at 21° C. 4 [h],[2],50 ppm
same,CIMT [ppm] after storage at 21° C. 24 h,[2],50 ppm
same,CIMT [ppm] after storage at 21° C. 72 h,[2],49 ppm
same,CIMT [ppm] after storage at 21° C. 168 h,[2],47 ppm
same,CIMT [ppm] after storage at 21° C. 336 h,[2],47 ppm
same,CIMT [ppm] after storage at 21° C. 4 [h],[3],101 ppm
same,CIMT [ppm] after storage at 21° C. 24 h,[3],100 ppm
same,CIMT [ppm] after storage at 21° C. 72 h,[3],101 ppm
same,CIMT [ppm] after storage at 21° C. 168 h,[3],99 ppm
same,CIMT [ppm] after storage at 21° C. 336 h,[3],95 ppm
same,CIMT [ppm] after storage at 21° C. 4 [h],[4],<LOQ (below the limit of determination (<0.5 ppm CMIT))
same,CIMT [ppm] after storage at 21° C. 24 h,[4],<LOQ (below the limit of determination (<0.5 ppm CMIT))
same,CIMT [ppm] after storage at 21° C. 72 h,[4],<LOQ (below the limit of determination (<0.5 ppm CMIT))
same,CIMT [ppm] after storage at 21° C. 168 h,[4],<LOQ (below the limit of determination (<0.5 ppm CMIT))
same,CIMT [ppm] after storage at 21° C. 336 h,[4],<LOQ (below the limit of determination (<0.5 ppm CMIT))
same,CIMT [ppm] after storage at 21° C. 4 [h],[5],13 ppm
same,CIMT [ppm] after storage at 21° C. 24 h,[5],4 ppm
same,CIMT [ppm] after storage at 21° C. 72 h,[5],1 ppm
same,CIMT [ppm] after storage at 21° C. 168 h,[5],<LOQ (below the limit of determination (<0.5 ppm CMIT))
same,CIMT [ppm] after storage at 21° C. 336 h,[5],<LOQ (below the limit of determination (<0.5 ppm CMIT))
same,CIMT [ppm] after storage at 21° C. 4 [h],[6],19 ppm
same,CIMT [ppm] after storage at 21° C. 24 h,[6],11 ppm
same,CIMT [ppm] after storage at 21° C. 72 h,[6],6 ppm
same,CIMT [ppm] after storage at 21° C. 168 h,[6],2 ppm
same,CIMT [ppm] after storage at 21° C. 336 h,[6],<LOQ (below the limit of determination (<0.5 ppm CMIT))
same,CIMT [ppm] after storage at 21° C. 4 [h],[7],23 ppm
same,CIMT [ppm] after storage at 21° C. 24 h,[7],17 ppm
same,CIMT [ppm] after storage at 21° C. 72 h,[7],11 ppm
same,CIMT [ppm] after storage at 21° C. 168 h,[7],7 ppm
same,CIMT [ppm] after storage at 21° C. 336 h,[7],2 ppm
same,CIMT [ppm] after storage at 21° C. 4 [h],[8],24 ppm
same,CIMT [ppm] after storage at 21° C. 24 h,[8],21 ppm
same,CIMT [ppm] after storage at 21° C. 72 h,[8],14 ppm
same,CIMT [ppm] after storage at 21° C. 168 h,[8],12 ppm
same,CIMT [ppm] after storage at 21° C. 336 h,[8],6 ppm
same,CIMT [ppm] after storage at 21° C. 4 [h],[9],25 ppm
same,CIMT [ppm] after storage at 21° C. 24 h,[9],22 ppm
same,CIMT [ppm] after storage at 21° C. 72 h,[9],20 ppm
same,CIMT [ppm] after storage at 21° C. 168 h,[9],15 ppm
same,CIMT [ppm] after storage at 21° C. 336 h,[9],10 ppm
same,CIMT [ppm] after storage at 21° C. 4 [h],[10],26 ppm
same,CIMT [ppm] after storage at 21° C. 24 h,[10],22 ppm
same,CIMT [ppm] after storage at 21° C. 72 h,[10],22 ppm
same,CIMT [ppm] after storage at 21° C. 168 h,[10],19 ppm
same,CIMT [ppm] after storage at 21° C. 336 h,[10],12 ppm
same,CIMT [ppm] after storage at 21° C. 4 [h],[11],24 ppm
same,CIMT [ppm] after storage at 21° C. 24 h,[11],21 ppm
same,CIMT [ppm] after storage at 21° C. 72 h,[11],21 ppm
same,CIMT [ppm] after storage at 21° C. 168 h,[11],18 ppm
same,CIMT [ppm] after storage at 21° C. 336 h,[11],14 ppm
same,CIMT [ppm] after storage at 21° C. 4 [h],[12],3 ppm
same,CIMT [ppm] after storage at 21° C. 24 h,[12],<LOQ (below the limit of determination (<0.5 ppm CMIT))
same,CIMT [ppm] after storage at 21° C. 72 h,[12],<LOQ (below the limit of determination (<0.5 ppm CMIT))
same,CIMT [ppm] after storage at 21° C. 168 h,[12],<LOQ (below the limit of determination (<0.5 ppm CMIT))
same,CIMT [ppm] after storage at 21° C. 336 h,[12],<LOQ (below the limit of determination (<0.5 ppm CMIT))
same,CIMT [ppm] after storage at 21° C. 4 [h],[13],21 ppm
same,CIMT [ppm] after storage at 21° C. 24 h,[13],9 ppm
same,CIMT [ppm] after storage at 21° C. 72 h,[13],2 ppm
same,CIMT [ppm] after storage at 21° C. 168 h,[13],<LOQ (below the limit of determination (<0.5 ppm CMIT))
same,CIMT [ppm] after storage at 21° C. 336 h,[13],<LOQ (below the limit of determination (<0.5 ppm CMIT))
same,CIMT [ppm] after storage at 21° C. 4 [h],[14],31 ppm
same,CIMT [ppm] after storage at 21° C. 24 h,[14],19 ppm
same,CIMT [ppm] after storage at 21° C. 72 h,[14],11 ppm
same,CIMT [ppm] after storage at 21° C. 168 h,[14],8 ppm
same,CIMT [ppm] after storage at 21° C. 336 h,[14],1 ppm
same,CIMT [ppm] after storage at 21° C. 4 [h],[15],38 ppm
same,CIMT [ppm] after storage at 21° C. 24 h,[15],29 ppm
same,CIMT [ppm] after storage at 21° C. 72 h,[15],21 ppm
same,CIMT [ppm] after storage at 21° C. 168 h,[15],15 ppm
same,CIMT [ppm] after storage at 21° C. 336 h,[15],8 ppm
same,CIMT [ppm] after storage at 21° C. 4 [h],[16],47 ppm
same,CIMT [ppm] after storage at 21° C. 24 h,[16],42 ppm
same,CIMT [ppm] after storage at 21° C. 72 h,[16],34 ppm
same,CIMT [ppm] after storage at 21° C. 168 h,[16],24 ppm
same,CIMT [ppm] after storage at 21° C. 336 h,[16],14 ppm
same,CIMT [ppm] after storage at 21° C. 4 [h],[17],49 ppm
same,CIMT [ppm] after storage at 21° C. 24 h,[17],49 ppm
same,CIMT [ppm] after storage at 21° C. 72 h,[17],40 ppm
same,CIMT [ppm] after storage at 21° C. 168 h,[17],30 ppm
same,CIMT [ppm] after storage at 21° C. 336 h,[17],23 ppm
same,CIMT [ppm] after storage at 21° C. 4 [h],[18],50 ppm
same,CIMT [ppm] after storage at 21° C. 24 h,[18],47 ppm
same,CIMT [ppm] after storage at 21° C. 72 h,[18],42 ppm
same,CIMT [ppm] after storage at 21° C. 168 h,[18],35 ppm
same,CIMT [ppm] after storage at 21° C. 336 h,[18],28 ppm
same,CIMT [ppm] after storage at 21° C. 4 [h],[19],51 ppm
same,CIMT [ppm] after storage at 21° C. 24 h,[19],50 ppm
same,CIMT [ppm] after storage at 21° C. 72 h,[19],45 ppm
same,CIMT [ppm] after storage at 21° C. 168 h,[19],38 ppm
same,CIMT [ppm] after storage at 21° C. 336 h,[19],31 ppm
same,CIMT [ppm] after storage at 21° C. 4 [h],[20],8 ppm
same,CIMT [ppm] after storage at 21° C. 24 h,[20],<LOQ (below the limit of determination (<0.5 ppm CMIT))
same,CIMT [ppm] after storage at 21° C. 72 h,[20],<LOQ (below the limit of determination (<0.5 ppm CMIT))
same,CIMT [ppm] after storage at 21° C. 168 h,[20],<LOQ (below the limit of determination (<0.5 ppm CMIT))
same,CIMT [ppm] after storage at 21° C. 336 h,[20],<LOQ (below the limit of determination (<0.5 ppm CMIT))
same,CIMT [ppm] after storage at 21° C. 4 [h],[21],37 ppm
same,CIMT [ppm] after storage at 21° C. 24 h,[21],25 ppm
same,CIMT [ppm] after storage at 21° C. 72 h,[21],13 ppm
same,CIMT [ppm] after storage at 21° C. 168 h,[21],6 ppm
same,CIMT [ppm] after storage at 21° C. 336 h,[21],<LOQ (below the limit of determination (<0.5 ppm CMIT))
same,CIMT [ppm] after storage at 21° C. 4 [h],[22],52 ppm
same,CIMT [ppm] after storage at 21° C. 24 h,[22],39 ppm
same,CIMT [ppm] after storage at 21° C. 72 h,[22],28 ppm
same,CIMT [ppm] after storage at 21° C. 168 h,[22],16 ppm
same,CIMT [ppm] after storage at 21° C. 336 h,[22],5 ppm
same,CIMT [ppm] after storage at 21° C. 4 [h],[23],67 ppm
same,CIMT [ppm] after storage at 21° C. 24 h,[23],56 ppm
same,CIMT [ppm] after storage at 21° C. 72 h,[23],37 ppm
same,CIMT [ppm] after storage at 21° C. 168 h,[23],22 ppm
same,CIMT [ppm] after storage at 21° C. 336 h,[23],14 ppm
same,CIMT [ppm] after storage at 21° C. 4 [h],[24],83 ppm
same,CIMT [ppm] after storage at 21° C. 24 h,[24],76 ppm
same,CIMT [ppm] after storage at 21° C. 72 h,[24],64 ppm
same,CIMT [ppm] after storage at 21° C. 168 h,[24],47 ppm
same,CIMT [ppm] after storage at 21° C. 336 h,[24],28 ppm
same,CIMT [ppm] after storage at 21° C. 4 [h],[25],93 ppm
same,CIMT [ppm] after storage at 21° C. 24 h,[25],89 ppm
same,CIMT [ppm] after storage at 21° C. 72 h,[25],77 ppm
same,CIMT [ppm] after storage at 21° C. 168 h,[25],63 ppm
same,CIMT [ppm] after storage at 21° C. 336 h,[25],44 ppm
same,CIMT [ppm] after storage at 21° C. 4 [h],[26],102 ppm
same,CIMT [ppm] after storage at 21° C. 24 h,[26],96 ppm
same,CIMT [ppm] after storage at 21° C. 72 h,[26],88 ppm
same,CIMT [ppm] after storage at 21° C. 168 h,[26],75 ppm
same,CIMT [ppm] after storage at 21° C. 336 h,[26],61 ppm
same,CIMT [ppm] after storage at 21° C. 4 [h],[27],100 ppm
same,CIMT [ppm] after storage at 21° C. 24 h,[27],101 ppm
same,CIMT [ppm] after storage at 21° C. 72 h,[27],94 ppm
same,CIMT [ppm] after storage at 21° C. 168 h,[27],84 ppm
same,CIMT [ppm] after storage at 21° C. 336 h,[27],72 ppm
